# Measurements from PubChem BioAssay (NCI).
#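 Five compound concentrations were applied to cells in 96-well plates for 48 hours; endpoints were derived by simple linear interpolation of the resulting dose-response curve. GI50 is the concentration that inhibits growth by half. Definition used: TGI = concentration required for complete inhibition of growth.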
# Tests used:
# Assay in all cases: DTP human tumour cell line panel, 48 h
# [1] = system: SF-295 CNS
# [2] = system: RPMI-8226 leukemia
# [3] = system: A549 NSCLC
# [4] = system: EKVX NSCLC
# [5] = system: OVCAR-5 ovarian
# [6] = system: CAKI-1 renal
# [7] = system: SW-620 colon
# [8] = system: 786-0 renal
# [9] = system: DU-145 prostate
# [10] = system: MDA-MB-231 breast
# [11] = system: MDA-MB-435
compound,measurement,setting,value
CCCC(O)C(NC(=O)CCl)C(=O)O (stereo unspecified),TGI,[1],> 100 µM
same,TGI,[2],> 100 µM
same,TGI,[3],> 100 µM
same,TGI,[4],> 100 µM
same,TGI,[5],> 100 µM
same,TGI,[6],> 100 µM
same,TGI,[7],> 100 µM
COc1cccc2c1C(=O)c1c(O)c3c(c(O)c1C2=O)C[C@@](O)(C(=O)CO)C[C@@H]3OC1CC(N)C(OC)C(C)O1 (stereo partly specified),TGI,[1],1.98 µM
same,TGI,[2],0.374 µM
same,TGI,[8],18.2 µM
same,TGI,[9],> 100 µM
same,TGI,[3],18.7 µM
same,TGI,[4],9.35 µM
same,TGI,[10],7.01 µM
same,TGI,[5],1.34 µM
same,TGI,[7],4.05 µM
Cc1ccc(-c2c3c(n(C4OC(CO)C(O)C(O)C4O)c(=S)c2C#N)CC(C)(C)CC3=O)cc1 (stereo unspecified),TGI,[1],> 100 µM
same,TGI,[2],> 100 µM
same,TGI,[8],> 100 µM
same,TGI,[9],> 100 µM
same,TGI,[3],> 100 µM
same,TGI,[11],> 100 µM
same,TGI,[10],> 100 µM
same,TGI,[5],> 100 µM
same,TGI,[6],> 100 µM
same,TGI,[7],> 100 µM
O=c1cc(-c2ccccc2)[nH]c2c(S)cccc12,TGI,[1],> 100 µM
same,TGI,[2],> 100 µM
same,TGI,[8],> 100 µM
same,TGI,[9],> 100 µM
same,TGI,[3],> 100 µM
same,TGI,[11],> 100 µM
same,TGI,[10],> 100 µM
same,TGI,[5],> 100 µM
same,TGI,[7],> 100 µM
COc1ccc(C(O)c2nccn2C)c(OC)c1 (stereo unspecified),TGI,[1],> 100 µM
same,TGI,[2],> 100 µM
same,TGI,[8],> 100 µM
same,TGI,[9],> 100 µM
same,TGI,[3],> 100 µM
same,TGI,[4],> 100 µM
same,TGI,[5],> 100 µM
same,TGI,[6],> 100 µM
same,TGI,[7],> 100 µM
CC(C)(C)NC(=O)N1N=C(c2ccccc2)C1c1ccccc1 (stereo unspecified),TGI,[1],> 100 µM
same,TGI,[2],46 µM
same,TGI,[8],32 µM
same,TGI,[9],> 100 µM
same,TGI,[3],> 100 µM
same,TGI,[4],> 100 µM
same,TGI,[10],> 100 µM
same,TGI,[5],> 100 µM
same,TGI,[6],59.1 µM
same,TGI,[7],> 100 µM
Cc1c(CNc2ccc(C(=O)NC(CC(=O)O)C(=O)O)cc2)ccc2nc(N)nc(N)c12 (stereo unspecified),TGI,[1],> 1000 µM
same,TGI,[8],> 1000 µM
same,TGI,[9],> 1000 µM
same,TGI,[3],> 1000 µM
same,GI50,[4],> 1000 µM
same,TGI,[4],> 1000 µM
same,TGI,[11],> 1000 µM
same,GI50,[10],> 1000 µM
same,TGI,[10],> 1000 µM
same,TGI,[5],> 1000 µM
same,GI50,[6],48.6 µM
same,TGI,[6],> 1000 µM
same,TGI,[7],> 1000 µM
O=P(O)(Cc1ccccc1)c1ccccc1-c1ccccc1,TGI,[1],> 100 µM
same,TGI,[8],> 100 µM
same,TGI,[9],> 100 µM
same,TGI,[3],> 100 µM
same,TGI,[4],> 100 µM
same,TGI,[10],> 100 µM
same,TGI,[5],> 100 µM
same,TGI,[6],> 100 µM
same,TGI,[7],> 100 µM
CSc1nncc2[nH]c(C)nc12,TGI,[1],> 100 µM
same,TGI,[2],> 100 µM
same,TGI,[8],> 100 µM
same,TGI,[3],> 100 µM
same,TGI,[4],> 100 µM
same,TGI,[11],> 100 µM
same,TGI,[10],> 100 µM
same,TGI,[5],> 100 µM
same,TGI,[6],> 100 µM
same,TGI,[7],> 100 µM
COC(=O)c1c(O)ccc2c1c1c(n2Cc2ccc(Cl)cc2Cl)C(=O)c2ccccc2C1,TGI,[2],49 µM
same,TGI,[8],> 100 µM
same,TGI,[9],> 100 µM
same,TGI,[3],> 100 µM
same,TGI,[11],> 100 µM
same,TGI,[10],> 100 µM
same,TGI,[7],> 100 µM
COC(=O)C1C=CN(N(C)C)C2=C1C(=O)c1c(O)cccc1C2=O (stereo unspecified),TGI,[1],3.31 µM
same,TGI,[2],5.97 µM
same,TGI,[8],11.4 µM
same,TGI,[9],2.96 µM
same,TGI,[3],6.44 µM
same,TGI,[4],11 µM
same,TGI,[10],5.79 µM
same,TGI,[5],4.62 µM
same,TGI,[6],5.7 µM
same,TGI,[7],5.14 µM
COc1cc(/C=C/C(=O)O)ccc1C(=O)OCc1ccccc1,TGI,[1],> 100 µM
same,TGI,[2],> 100 µM
same,TGI,[3],> 100 µM
same,TGI,[4],> 100 µM
same,TGI,[5],> 100 µM
same,TGI,[7],> 100 µM
CC(C)(C)C(=O)OC(N)/C=C/c1ccccc1 (stereo unspecified),TGI,[1],> 100 µM
same,TGI,[2],> 100 µM
same,TGI,[8],> 100 µM
same,TGI,[3],> 100 µM
same,TGI,[4],> 100 µM
same,TGI,[11],> 100 µM
same,TGI,[10],> 100 µM
same,TGI,[5],> 100 µM
same,TGI,[6],> 100 µM
same,TGI,[7],> 100 µM
CN1C(=O)C(CC=O)(C(C)(C)C)c2ccccc21 (stereo unspecified),TGI,[1],> 100 µM
same,TGI,[2],> 100 µM
same,TGI,[8],> 100 µM
same,TGI,[9],> 100 µM
same,TGI,[3],> 100 µM
same,TGI,[11],> 100 µM
same,TGI,[10],> 100 µM
same,TGI,[5],> 100 µM
same,TGI,[6],> 100 µM
same,TGI,[7],> 100 µM
CC(C)=CCc1c(O)ccc2ccc(=O)oc12,TGI,[1],> 100 µM
same,TGI,[2],> 100 µM
same,TGI,[3],> 100 µM
same,TGI,[4],> 100 µM
same,TGI,[5],> 31.6 µM
same,TGI,[6],> 100 µM
same,TGI,[7],> 100 µM
CC(CCC#N)(CCC#N)C(=O)CC(O)(C(F)(F)F)C(F)(F)F,TGI,[1],41 µM
same,TGI,[8],4.72 µM
same,TGI,[9],26.1 µM
same,TGI,[3],30.1 µM
same,TGI,[4],44.1 µM
same,TGI,[11],72.7 µM
same,TGI,[10],14.2 µM
same,TGI,[5],32.4 µM
same,TGI,[6],8.32 µM
same,TGI,[7],6.9 µM
C[C@@H]1CCC2[C@@H](C)[C@@H](OCCO[C@H]3OC4O[C@@]5(C)CCC6[C@H](C)CCC([C@H]3C)[C@@]46OO5)OC3O[C@@]4(C)CCC1[C@]32OO4 (stereo partly specified),TGI,[1],> 100 µM
same,TGI,[2],> 100 µM
same,TGI,[8],> 100 µM
same,TGI,[3],> 100 µM
same,TGI,[4],> 100 µM
same,TGI,[11],98.9 µM
same,TGI,[10],> 66.2 µM
same,TGI,[5],> 100 µM
same,TGI,[6],2.07 µM
same,TGI,[7],> 100 µM
